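96-well plates; 48 h exposure; 5 concentrations. Endpoints by linear interpolation between flanking doses. Not reached: highest tested concentration assigned. GI50 marks 50% less growth. TGI is the concentration that stops growth completely.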
Key:
Experiment in all cases: NCI-60 cell line screen, 48 h
[1] = system: 786-0 renal
[2] = system: CAKI-1 renal
[3] = system: HCC-2998 colon
[4] = system: IGROV1 ovarian
[5] = system: M14 melanoma
[6] = system: NCI-H460 lung
[7] = system: UACC-257 melanoma
[8] = system: SF-539 CNS
[9] = system: SW-620 colon
[10] = system: DU-145 prostate

| SMILES | TGI [1] | TGI [2] | TGI [3] | TGI [4] | TGI [5] | TGI [6] | TGI [7] | TGI [8] | TGI [9] | GI50 [1] | GI50 [2] | GI50 [10] | TGI [10] | GI50 [4] | GI50 [5] | GI50 [6] | GI50 [8] | GI50 [9] | GI50 [7] | GI50 [3] |
| --- | --- | --- | --- | --- | --- | --- | --- | --- | --- | --- | --- | --- | --- | --- | --- | --- | --- | --- | --- | --- |
| COc1ccc2oc(-c3cccnc3)cc(=O)c2c1 | > 100 µM | > 100 µM | > 100 µM | > 100 µM | > 100 µM | > 100 µM | > 100 µM | – | – | – | – | – | – | – | – | – | – | – | – | – |
| CCOC(=O)C(C)(C)Oc1ccc2c(C)c(-c3ccc(Cl)cc3)c(=O)oc2c1 | > 100 µM | – | > 100 µM | > 100 µM | > 100 µM | > 100 µM | > 100 µM | > 100 µM | > 100 µM | – | – | – | – | – | – | – | – | – | – | – |
| O=C1CC(C[C@H](O)C2CCCCC2O)CC(=O)N1Cc1ccccc1 (some centres undefined) | > 100 µM | > 100 µM | > 100 µM | > 100 µM | > 100 µM | > 100 µM | > 100 µM | > 100 µM | > 100 µM | – | – | – | – | – | – | – | – | – | – | – |
| O=c1cc2oc3cc(O)c(O)cc3c(-c3ccccc3O)c-2cc1O | 37.2 µM | 11.1 µM | – | > 100 µM | 32.1 µM | 82.6 µM | > 100 µM | > 100 µM | > 100 µM | 6.32 µM | 3.04 µM | 22.8 µM | > 100 µM | 6.73 µM | 6.66 µM | 21.5 µM | 6.16 µM | 32.7 µM | 20.4 µM | – |
| CC1(C)OCCn2c1nc1c(N3CCOCC3)nc(-c3cnc(N)nc3)nc12 | 5.09 µM | – | > 100 µM | 0.432 µM | > 100 µM | > 100 µM | 1.97 µM | 2.55 µM | > 100 µM | 0.344 µM | – | 0.354 µM | > 100 µM | 0.0622 µM | 0.316 µM | 0.187 µM | 0.316 µM | 0.399 µM | 0.197 µM | 0.412 µM |
| O=C1[C@@H]2C3c4ccccc4C([C@@H]2C(=O)N1c1ccccc1)S3(=O)=O | > 100 µM | – | > 100 µM | > 100 µM | > 100 µM | > 100 µM | > 100 µM | > 100 µM | > 100 µM | – | – | – | – | – | – | – | – | – | – | – |
| Cc1ccc(Cn2c(C)nc3c2C(=O)c2ccccc2C3=O)cc1 | 19.7 µM | – | > 100 µM | > 100 µM | > 100 µM | 3.13 µM | 60.8 µM | 18.7 µM | > 100 µM | – | – | – | – | – | – | – | – | – | – | – |
| COC1[C@@H](OC(C)=O)[C@@H](NC(=O)C(Cl)(Cl)Cl)C(I)[C@@H](N2C(=O)c3ccccc3C2=O)[C@H]1OC (some centres undefined) | > 100 µM | – | – | > 100 µM | > 100 µM | > 100 µM | > 100 µM | > 100 µM | > 100 µM | – | – | – | – | – | – | – | – | – | – | – |
| O=C(Nc1cc(Cl)ccc1Cl)c1cc2cccc(Cl)c2oc1=O | > 100 µM | – | – | > 100 µM | > 100 µM | > 100 µM | > 100 µM | > 100 µM | > 100 µM | – | – | – | – | – | – | – | – | – | – | – |
| Cc1ccc(NC(=O)C2C(=O)N(c3ccc(C)c(C)c3)C(=O)C2N=N)cc1C (centres undefined) | > 100 µM | > 100 µM | > 100 µM | > 100 µM | > 100 µM | > 100 µM | > 100 µM | > 100 µM | > 100 µM | – | – | – | – | – | – | – | – | – | – | – |
